Experimental data taken from US5610297A, “Peptides ketoamides” (Georgia Tech Research Corp., priority 1995, dated 1997).

How the values were obtained:
[1] = test system: Calpain-mediated breakdown of spectrin in platelets; experiment: Platelet membrane permeability assay; type: cell-based, rat; parameters: unit not given here; details: numeric value, unit not given
Description: Platelet membrane permeability assay. Calpain-mediated breakdown of spectrin was measured by quantitative densitometry of the calpain-specific 150/155 kDa spectrin fragment doublet [see Siman et al., Proc. Natl. Acad. Sci. USA 81, 3572-3576 (1984)]. Platelets were isolated by a modification of the method of Ferrell and Martin [J. Biol. Chem. 264, 20723-20729 (1989)]. Blood (15-20 ml) was drawn from male Sprague-Dawley rats into 1/10th volume of 100 mM EDTA-citrate, and centrifuged 10 minutes at 2000 rpm in a clinical centrifuge at room temperature. […] Platelets were washed once in 15 ml buffer 1, then resuspended to 10^7 cells/ml in buffer 2 (136 mM NaCl, 2.7 mM KCl, 0.42 mM NaH2 PO4, 12 mM NaHCO3, 2mM MgCl, 1 mg/ml BSA (Sigma), 5.6 mM glucose, 20 mM HEPES (Sigma) pH 7.4) and allowed to "rest" for a minimum of 10 minutes at room temperature before use.
Inhibitors were added from stock solutions made fresh in DMSO. 100 μl platelets, suspended to 10^7 cells/ml in buffer 2, were incubated with 1 μl of an inhibitor solution for 5 minutes at room temperature prior to the addition of 2 mM Ca^2+ and 1 uM A23 187. After 10 minutes total exposure to inhibitor (5 minutes exposure to ionophore) at room temperature, platelets were reisolated at 14,000 rpm for 10 sec in a Beckman microfuge, dissolved in SDS-PAGE sample buffer, and heated to 90° C. for 3 minutes.
Samples were subjected to SDS-PAGE in 4-12% gradient mini gels (Novex) and transferred to nitrocellulose (Schleicher and Schuell 0.45 um) by electroblotting. Filters were blocked for 10 minutes in 0.25% gelatin, 1% BSA, 0.25% triton X100, 0.9% NaCl, 10 mM Tris-Cl pH 7.5, incubated overnight in the same solution containing antibody to rat spectrin, washed 3×10 minutes with 10 mM Tris-Cl pH 7.5, 0.5% triton X100, incubated 4 hours in wash buffer plus alkaline phosphatase conjugated goat anti-rabbit antibody (Biorad), and washed as above. Blots were developed using the Biorad AP conjugate substrate kit. Quantitative densitometry was used to obtain values for the intact spectrin bands and the 150/155 kDa breakdown product doublet.

[2] = target: porcine pancreatic elastase (PPE) (Sus scrofa, UniProt P00772); experiment: Inhibition of PP elastase (Suc-Ala-Ala-Ala-NA hydrolysis); type: biochemical
Description: Assay of Inhibitory Potency. Peptide α-ketoamides were assayed as reversible enzyme inhibitors. Various concentrations of inhibitors in Me2 SO were added to the assay mixture which contained buffer and substrate. The reaction was started by the addition of the enzyme and the hydrolysis rates were followed spectrophotometrically or fluorimetrically.
A 0.1M Hepes, 0.5M NaCl, pH 7.5 buffer was utilized for human leukocyte elastase (HLE), porcine pancreatic elastase (PPE), chymotrypsin and cathepsin G. A 0.1 Hepes, 0.01M CaCl2, pH 7.5 buffer was utilized for trypsin, plasmin, and coagulation enzymes. A 50 mM Tris-HCl, 2 mM EDTA, 5 mM cysteine, pH 7.5 was used as a buffer for papain. A 88 mM KH2 PO4, 12 mM Na2 HPO4, 1.33 mM EDTA, 2.7 mM cysteine, pH 6.0 solution was used as a buffer for cathepsin B. A 20 mM Hepes, 10 mM CaCl2, 10 mM mercatoethanol, pH 7.2 buffer was utilized for calpain I and calpain II.
HLE and PPE were assayed with MeO-Suc-Ala-Ala-Pro-Val-NA and Suc-Ala-Ala-Ala-NA, respectively [Nakajima et al., J. Biol. Chem. 254, 4027-4032 (1979); incorporated herein by reference]. Human leukocyte cathepsin G and chymotrypsin Aα were assayed with Suc-Val-Pro-Phe-NA [Tanaka et al., Biochemistry 24, 2040-2047 (1985); incorporated herein by reference]. The hydrolysis of peptide 4-nitroanilides was measured at 410 nm [ε410 =8800 M^-1 cm^-1; Erlanger et al., Arch. Biochem. Biophys. 95, pp 271-278 (1961); incorporated herein by reference]. Trypsin, thrombin, human plasma kallikrein, porcine pancreatic kallikrein, human factor XIa, and human plasmin were assayed with Z-Arg-SBzl or Z-Gly-Arg-SBu-i [McRae et al., Biochemistry 20, 7196-7206 (1981); incorporated herein by reference]. All peptide thioester hydrolysis rates were measured with assay mixtures containing 4,4'-dithiodipyridine [ε324 =19800 M^-1 cm^-1; Grasetti & Murray, Arch. Biochem. Biophys. 119, 41-49 (1967); incorporated herein by reference].

Chain of porcine pancreatic elastase (PPE) (P00772 27-266): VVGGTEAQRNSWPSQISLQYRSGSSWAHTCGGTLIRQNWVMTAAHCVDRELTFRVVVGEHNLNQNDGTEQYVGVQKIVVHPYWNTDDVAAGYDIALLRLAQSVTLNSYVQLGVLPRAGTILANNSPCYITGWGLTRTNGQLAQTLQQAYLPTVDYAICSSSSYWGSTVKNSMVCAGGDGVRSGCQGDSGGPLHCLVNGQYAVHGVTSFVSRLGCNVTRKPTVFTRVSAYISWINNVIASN

Ki [2] | SMILES | platelet (Activity in the Platelet Assay) [1]
65 µM | CCNC(=O)C(=O)[C@H](CC)NC(=O)[C@H](CC(C)C)NC(=O)OCc1ccccc1 [Z--Leu--Abu--CONH--Et, Z-Leu-Abu-CONH-Et] | 1.5
5 µM | CCCCNC(=O)C(=O)C(CC)NC(=O)C(CC(C)C)NC(=O)OCc1ccccc1 (stereo not drawn) [Z--Leu--Abu--CONH--nBu, Z-Leu-Abu-CONH-nBu] | 2.0
> 150 µM | CCNC(=O)C(=O)[C@H](Cc1ccccc1)NC(=O)[C@H](CC(C)C)NC(=O)OCc1ccccc1 [Z--Leu--Phe--CONH--Et, Z-Leu-Phe-CONH-Et] | 1.7
> 300 µM | CCCNC(=O)C(=O)C(Cc1ccccc1)NC(=O)C(CC(C)C)NC(=O)OCc1ccccc1 (stereo not drawn) [Z--Leu--Phe--CONH--nPr, Z-Leu-Phe-CONH-nPr] | 24
